Where two headings read alike, the source gives them in different places.

As usually defined, the Ki is a dissociation constant, usually derived from enzyme kinetics or from competition with a known ligand.

In assay [1] the target is T1, first (BD1: amino acids K57-E168) bromodomain of BRD4 (Homo sapiens, UniProt O60885).
T1 construct: His-tagged first (BD1: amino acids K57-E168)
The assay can be described thus: TR-FRET bromodomain binding assay, BRD4 BD1. The following applies: Ki calculated from IC50, probe Kd and probe concentration, read-out: TR-FRET Binding Ki: BRD4 (BDI_K57-E168). The procedure, abridged:
(§1)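 His-tagged BRD4 bromodomain competed against an Alexa647-labeled BET-inhibitor probe by TR-FRET in 20 mM sodium phosphate pH 6.0, 50 mM NaCl, 1 mM EDTA, 0.01% Triton X-100, 1 mM DTT.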

Assay [2] addresses T2, second (BD2: amino acids E352-E168) bromodomain of BRD4 (Homo sapiens, UniProt O60885).
T2 construct: protocol
The assay can be described thus: TR-FRET bromodomain binding assay, BRD4 BD2. The following applies: Ki calculated from IC50, probe Kd and probe concentration, read-out: TR-FRET Binding Ki: BRD4 (BDII_E352-M457). The procedure, abridged:
as §1

Assay [3] relates to breast cancer cell line MX-1. The assay can be described thus: MX-1 cell line proliferation assay (3-day). Format: cell-based. The following applies: Homo sapiens, MX1, MX-1 cells, Cell Titer Glo, read-out: Cellular proliferation: EC50. The procedure, abridged: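 MX-1 cells in RPMI/10% FBS, plated 5000/well overnight, then exposed to compound at final 3 to 0.0001 μM (3-fold series) for 3 days at 37° C. Cell Titer Glo luminescence normalized to DMSO-treated cells; EC50 from sigmoidal curve fit.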

[4] abbreviates: TR-FRET assay protocol (D, E or G) per compound.
Where [5] appears, read: TR-FRET assay protocol (A-G, compound concentration range).

As to `CCOc1cc(=O)n(C)cc1-c1cc(N(C)S(=O)(=O)Cc2ccccc2)ccc1Oc1ccc(F)cc1F` [Example 420, N-[4-(2,4-difluorophenoxy)-3-(4-ethoxy-1-methyl-6-oxo-1,6-dihydropyridin-3-yl)phenyl]-N-methyl-1-phenylmethanesulfonamide], the Ki was > 238 nM in assay [1] (setting [4]) and 22.1 nM in assay [2] (setting [4]). Besides, in assay [3] (72 hours with compound), the EC50 turned out to be 832 nM.
As for `CCOc1cc(=O)n(C)cc1-c1cc(NS(=O)(=O)c2cccc3ccccc23)ccc1Oc1ccc(F)cc1F` [Example 343, N-[4-(2,4-difluorophenoxy)-3-(4-ethoxy-1-methyl-6-oxo-1,6-dihydropyridin-3-yl)phenyl]naphthalene-1-sulfonamide], the Ki in assay [1] (setting [5]) was 69.8 nM; in assay [2] (setting [5]) it was 12.7 nM. Besides, in assay [3] (72 h incubation), the EC50 was found to be 504 nM.
For `CCOc1cc(=O)n(C)cc1-c1cc(NS(C)(=O)=O)ccc1Oc1ccc(F)cc1F` [Example 277, N-[4-(2,4-difluorophenoxy)-3-(4-ethoxy-1-methyl-6-oxo-1,6-dihydropyridin-3-yl)phenyl]methanesulfonamide], in that order: 10.7 nM, 5.29 nM and 48.1 nM.
For `CCOc1cc(=O)n(C)cc1-c1cc(NS(=O)(=O)Cc2ccccc2F)ccc1Oc1ccc(F)cc1F` [Example 351, N-[4-(2,4-difluorophenoxy)-3-(4-ethoxy-1-methyl-6-oxo-1,6-dihydropyridin-3-yl)phenyl]-1-(2-fluorophenyl)methanesulfonamide], in that order: 25.7 nM, 29.8 nM and 360 nM.
For `CCS(=O)(=O)Nc1ccc(Oc2ccc(C(N)=O)cc2)c(-c2cn(C)c(=O)cc2OCC(F)(F)F)c1` [Example 294, 4-{4-[(ethylsulfonyl)amino]-2-[1-methyl-6-oxo-4-(2,2,2-trifluoroethoxy)-1,6-dihydropyridin-3-yl]phenoxy}benzamide], in that order: 27.8 nM, 8.3 nM and > 3000 nM.
As to `Cc1cc(-c2ccccc2Oc2ccccc2)c[nH]c1=O` [Example 260, 3-methyl-5-(2-phenoxyphenyl)pyridin-2(1H)-one], the values for the inhibition constant (Ki) in assay [1] (setting [5]) and in assay [2] (setting [5]) were 216 nM and 406 nM, respectively. The EC50 in assay [3] (72 h incubation) was 2350 nM.
Regarding `CN1CCN(c2ccc(-c3cc(=O)n(C)nc3-c3ccccc3Oc3ccccc3)cc2)CC1` [Example 161, 2-methyl-5-[4-(4-methylpiperazin-1-yl)phenyl]-6-(2-phenoxyphenyl)pyridazin-3(2H)-one], the Ki in assay [1] (setting [5]) is 26.3 nM; in assay [2] (setting [5]) it was 24.9 nM. In addition, the EC50 in assay [3] (72 h incubation) worked out at 244 nM.
`CCS(=O)(=O)Nc1ccc(Oc2ccc(F)cc2F)c(-c2cn(C)c(=O)cc2-c2ccc(N3CCOCC3)cc2)c1` [Example 284, N-[4-(2,4-difluorophenoxy)-3-{1-methyl-4-[4-(morpholin-4-yl)phenyl]-6-oxo-1,6-dihydropyridin-3-yl]phenyl}ethanesulfonamide]: the Ki in assay [1] (setting [5]) was 5.75 nM; in assay [2] (setting [5]) it was 1.84 nM. In addition, the EC50 in assay [3] (72 h incubation) is 44.3 nM.
For `CCOc1cc(=O)n(C)cc1-c1cc(NC(=O)CCC(C)C)ccc1Oc1ccc(F)cc1F` [Example 298, N-[4-(2,4-difluorophenoxy)-3-(4-ethoxy-1-methyl-6-oxo-1,6-dihydropyridin-3-yl)phenyl]-4-methylpentanamide], the Ki is 143 nM in assay [1] (setting [5]) and 54.5 nM in assay [2] (setting [5]). Moreover, the EC50 in assay [3] (72 h incubation) worked out at 637 nM.
For `CCCc1cc(=O)n(C)cc1-c1cc(NS(=O)(=O)CC)ccc1Oc1ccc(F)cc1F` [Example 359, N-[4-(2,4-difluorophenoxy)-3-(1-methyl-6-oxo-4-propyl-1,6-dihydropyridin-3-yl)phenyl]ethanesulfonamide], in that order: 12.6 nM, 5.1 nM and 112 nM.
Take `CCOc1cc(=O)n(C)cc1-c1cc(NS(=O)(=O)CC)ccc1Oc1ccc(C(F)(F)F)cc1` [Example 386, N-{3-(4-ethoxy-1-methyl-6-oxo-1,6-dihydropyridin-3-yl)-4-[4-(trifluoromethyl)phenoxy]phenyl}ethanesulfonamide]: the Ki in assay [1] (setting [4]) is 81.8 nM; in assay [2] (setting [4]) it was 10.2 nM. The EC50 in assay [3] (72 hours with compound) was found to be 54.1 nM.
For `CCOc1cc(=O)n(C)cc1-c1cc(NC(=O)c2cncs2)ccc1Oc1ccc(F)cc1F` [Example 411, N-[4-(2,4-difluorophenoxy)-3-(4-ethoxy-1-methyl-6-oxo-1,6-dihydropyridin-3-yl)phenyl]-1,3-thiazole-5-carboxamide], in that order: 61.3 nM, 47 nM and 254 nM.
On to `CCOc1cc(=O)n(C)cc1-c1cc(NS(=O)(=O)CC)ccc1Oc1ccc(F)c(F)c1` [Example 401, N-[4-(3,4-difluorophenoxy)-3-(4-ethoxy-1-methyl-6-oxo-1,6-dihydropyridin-3-yl)phenyl]ethanesulfonamide], for which the figures for the Ki in assay [1] (setting [4]) and in assay [2] (setting [4]) were 19.8 nM and 4.99 nM, respectively. Besides, in assay [3] (72 hours with compound), the EC50 is 25.1 nM.
As to `Cn1nc(-c2cc(CNC(=O)C(F)(F)F)ccc2Oc2ccccc2)ccc1=O` [Example 17, 2,2,2-trifluoro-N-[3-(1-methyl-6-oxo-1,6-dihydropyridazin-3-yl)-4-phenoxybenzyl]acetamide], the values for the Ki in assay [1] (setting [5]) and in assay [2] (setting [5]) were 513 nM and 4520 nM, respectively. In assay [3] (72 h incubation), the EC50 is 2630 nM.
For the molecule `Cn1cc(-c2cc(NS(=O)(=O)CC(F)(F)F)ccc2Oc2ccccc2)ccc1=O` [Example 229, 2,2,2-trifluoro-N-[3-(1-methyl-6-oxo-1,6-dihydropyridin-3-yl)-4-phenoxyphenyl]ethanesulfonamide], the Ki is 31.8 nM in assay [1] (setting [5]) and 21.8 nM in assay [2] (setting [5]). Moreover, the EC50 in assay [3] (72 h incubation) came to 507 nM.
For `CCOc1cc(=O)n(C)cc1-c1cc(NS(=O)(=O)CC)ccc1Oc1cccnc1` [Example 405, N-[3-(4-ethoxy-1-methyl-6-oxo-1,6-dihydropyridin-3-yl)-4-(pyridin-3-yloxy)phenyl]ethanesulfonamide], the results for the Ki in assay [1] (setting [4]) and in assay [2] (setting [4]) were 36.3 nM and 4.99 nM, respectively. In addition, the EC50 in assay [3] (72 hours with compound) was 50.2 nM.
Take `CCOc1cc(=O)n(C)cc1-c1cc(CS(C)(=O)=O)ccc1Oc1ccc(F)cc1F` [Example 370, 5-{2-(2,4-difluorophenoxy)-5-[(methylsulfonyl)methyl]phenyl}-4-ethoxy-1-methylpyridin-2(1H)-one]: the Ki is 52.7 nM in assay [1] (setting [5]) and 39.5 nM in assay [2] (setting [5]). Moreover, the EC50 in assay [3] (72 h incubation) amounted to 135 nM.
For the molecule `CCOc1cc(=O)n(C)cc1-c1cc(NS(=O)(=O)CC)ccc1OCCC1CC1` [Example 383, N-[4-(2-cyclopropylethoxy)-3-(4-ethoxy-1-methyl-6-oxo-1,6-dihydropyridin-3-yl)phenyl]ethanesulfonamide], the Ki in assay [1] (setting [4]) is 43.2 nM; in assay [2] (setting [4]), 82.8 nM. In addition, in assay [3] (72 hours with compound), the EC50 was 83.6 nM.
Consider `CCS(=O)(=O)Nc1ccc(Oc2ccc(F)cc2F)c(-c2cn(C)c(=O)cc2OCC2CCN(C(=O)OC(C)(C)C)CC2)c1` [Example 324, tert-butyl 4-{[(5-{2-(2,4-difluorophenoxy)-5-[(ethylsulfonyl)amino]phenyl}-1-methyl-2-oxo-1,2-dihydropyridin-4-yl)oxy]methyl}piperidine-1-carboxylate], for which the values for the Ki in assay [1] (setting [5]) and in assay [2] (setting [5]) were 45 nM and 18.1 nM, respectively. The EC50 in assay [3] (72 h incubation) amounted to 436 nM.
As for `CCOc1cc(=O)n(C)cc1-c1cc(NS(=O)(=O)CC)ccc1Oc1ccc(Cl)cc1F` [Example 403, N-[4-(4-chloro-2-fluorophenoxy)-3-(4-ethoxy-1-methyl-6-oxo-1,6-dihydropyridin-3-yl)phenyl]ethanesulfonamide], the Ki in assay [1] (setting [4]) was 14.7 nM; in assay [2] (setting [4]), 1.38 nM. Besides, the EC50 in assay [3] (72 hours with compound) came to 23.9 nM.
Regarding `CCOc1cc(=O)n(C)cc1-c1cc(NC(=O)c2ccc(COc3ccccc3)cc2)ccc1Oc1ccc(F)cc1F` [Example 297, N-[4-(2,4-difluorophenoxy)-3-(4-ethoxy-1-methyl-6-oxo-1,6-dihydropyridin-3-yl)phenyl]-4-(phenoxymethyl)benzamide], the Ki in assay [1] (setting [5]) was > 238 nM; in assay [2] (setting [5]) it was 256 nM. For the same molecule, the EC50 in assay [3] (72 h incubation) is 2420 nM.
Turning to `Cn1nc(-c2ccccc2Oc2ccccc2)c(-c2ccc(CN3CCNCC3)cc2)cc1=O` [Example 70, 2-methyl-6-(2-phenoxyphenyl)-5-[4-(piperazin-1-ylmethyl)phenyl]pyridazin-3(2H)-one], the Ki is 89.1 nM in assay [1] (setting [5]) and 62 nM in assay [2] (setting [5]). Besides, the EC50 in assay [3] (72 h incubation) is 815 nM.
Turning to `CCOc1cc(=O)n(C)cc1-c1cc(NS(=O)(=O)c2ccc(C(C)C)cc2)ccc1Oc1ccc(F)cc1F` [Example 347, N-[4-(2,4-difluorophenoxy)-3-(4-ethoxy-1-methyl-6-oxo-1,6-dihydropyridin-3-yl)phenyl]-4-(propan-2-yl)benzenesulfonamide], the Ki in assay [1] (setting [5]) was 169 nM; in assay [2] (setting [5]), 53.4 nM. Also, the EC50 in assay [3] (72 h incubation) came to 1560 nM.

(Values after patent US9561231B2 (AbbVie Inc., priority 2012, dated 2017).)
